One compound from patent US12122816B2, “Long acting peptide tyrosine tyrosine (PYY) analogs and methods of use” (Intarcia Therapeutics, Inc., priority 2020, dated 2024) can be followed below.

SMILES strings stand for the structures. Where two headings read alike, the source gives them in different places.

Broadly, the solubility is how much of the substance goes into solution per volume. The EC50 is the concentration needed to bring the measured effect to its halfway point. Read a low EC50 as an effect from little substance.

Data set [1] is described as follows: Solubility in DI water at room temperature (visual inspection). The class given is physicochemical. The following applies: DI water, TFA salt form, read-out: Solubility (in Water, RT). As to the method:
The analog polypeptides described herein were tested for solubility in saline or in aqueous (DI water) at room temperature. Samples were visually inspected for clarity of the sample, any appearance of turbidity or haziness.

Data set [2] can be described thus: Stability in water or saline (1 mg/ml) at 37° C., purity by LC/MS and HPLC. The class given is physicochemical. The settings on record: TFA salt form.
For data set [3], the target named is T1, human Y2 receptor (Homo sapiens, UniProt P49146).
T1 sequence (P49146 1-381): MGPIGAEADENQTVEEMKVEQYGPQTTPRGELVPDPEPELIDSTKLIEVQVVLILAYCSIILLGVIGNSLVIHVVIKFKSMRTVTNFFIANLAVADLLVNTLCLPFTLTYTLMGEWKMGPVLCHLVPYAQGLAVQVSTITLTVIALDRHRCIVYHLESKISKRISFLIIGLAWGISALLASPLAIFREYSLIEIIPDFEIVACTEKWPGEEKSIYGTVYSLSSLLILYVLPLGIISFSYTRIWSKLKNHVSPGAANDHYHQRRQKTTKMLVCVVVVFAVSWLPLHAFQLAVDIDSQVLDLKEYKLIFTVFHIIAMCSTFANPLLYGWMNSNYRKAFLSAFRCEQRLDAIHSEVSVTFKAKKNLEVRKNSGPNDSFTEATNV
The experiment in a line: NPY receptor functional assay (cAMP, HEK-CNG cells, ACTOne membrane potential dye). The class given is cell-based. The following applies: NPY2R pEC50, HEK-CNG cells; standard PYY(3-36); species (human or rat) not given. The method, boiled down:
(§1)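 HEK-CNG cells stably expressing each human receptor; peptides added in triplicate for 50 minutes at room temperature, with agonism read as decreased isoproterenol-induced membrane potential dye signal (final/initial read).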

The target of data set [4] is T2, human Y5 receptor (Homo sapiens, UniProt Q15761).
T2 sequence (Q15761 1-445): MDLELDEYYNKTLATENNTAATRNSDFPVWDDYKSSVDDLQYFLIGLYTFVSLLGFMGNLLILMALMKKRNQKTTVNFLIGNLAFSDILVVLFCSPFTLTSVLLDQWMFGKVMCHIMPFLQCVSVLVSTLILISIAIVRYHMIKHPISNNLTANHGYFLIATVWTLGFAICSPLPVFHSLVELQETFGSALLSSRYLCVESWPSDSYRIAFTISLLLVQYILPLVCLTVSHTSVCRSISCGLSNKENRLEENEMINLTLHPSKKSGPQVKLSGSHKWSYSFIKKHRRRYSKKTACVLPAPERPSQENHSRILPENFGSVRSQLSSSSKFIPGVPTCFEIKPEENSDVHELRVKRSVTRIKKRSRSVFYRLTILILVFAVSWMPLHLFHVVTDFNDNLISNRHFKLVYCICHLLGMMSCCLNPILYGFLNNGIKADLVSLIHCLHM
Described as above. Type of data set: cell-based. The following applies: NPY5R pEC50, HEK-CNG cells; standard NPY; species (human or rat) not given. The method, boiled down: as §1

Data set [5] can be described thus: In vitro metabolic stability in kidney brush border membranes (kBBM). Type of data set: in vitro ADME. The settings on record: 1 mcM peptide, 37° C. As to the method: In vitro incubations in kidney brush border membrane (kBBM) preparations were used to characterize the ability of peptides to resist degradation by proteases and peptidases in the systemic circulation. kBBM were selected because they contain a high concentration of a diverse set of proteases and peptidases, many of which are present throughout the body.
Brush border membranes from rat and human kidney tissue were prepared via centrifugation and stored at −70° C. Thawed stocks of rat or human kBBM were diluted to the appropriate concentration in 25 mM HEPES buffer (pH 7.4) containing 1% casein and aliquoted into a 96-well plate. The kBBM solutions were pre-warmed for 10 minutes at 37° C. […] The final concentration of kBBM in each incubation was 50 mcg protein/mL. Reactions were maintained at 37° C. in a shaking water bath. […] Quenched samples were centrifuged at 2178×g for 10 min and then a portion of the supernatants were transferred to a clean 96-well plate and diluted 1:1 with water. Samples were analyzed by UPLC-MS/MS.

Regarding `CC(C)C[C@H](NC(=O)[C@H](Cc1ccc(O)cc1)NC(=O)[C@H](Cc1c[nH]cn1)NC(=O)[C@H](CCCNC(=N)N)NC(=O)[C@H](CC(C)C)NC(=O)[C@H](CC(=O)O)NC(=O)[C@@H](CCCCNC(=O)CC[C@H](NC(=O)CC[C@H](NC(=O)CCCCCCCCCCCCCCCCCCC(=O)O)C(=O)O)C(=O)O)NC(=O)[C@H](Cc1ccc(O)cc1)NC(=O)[C@H](Cc1ccc(O)cc1)NC(=O)[C@H](CCCNC(=N)N)NC(=O)[C@H](CC(N)=O)NC(=O)[C@H](Cc1c[nH]c2ccccc12)NC(=O)[C@H](CCC(=O)O)NC(=O)[C@H](CCC(=O)O)NC(=O)[C@@H]1CCCN1C(=O)[C@H](CO)NC(=O)[C@H](C)NC(=O)[C@H](CC(=O)O)NC(=O)[C@H](CCCCN)NC(=O)CNC(=O)[C@@H]1CCCN1C(=O)[C@H](C)NC(=O)[C@H](CCC(=O)O)NC(=O)[C@@H]1CCCN1C(=O)[C@H](CCCCN)NC(=O)[C@@H]1CCCN1)C(=O)N[C@@H](CC(N)=O)C(=O)N[C@@H](Cc1c[nH]c2ccccc12)C(=O)N[C@@H](CC(C)C)C(=O)N[C@H](C(=O)N[C@@H](CCCNC(=N)N)C(=O)N[C@@H](CCC(N)=O)C(=O)N[C@@H](CCCNC(=N)N)C(=O)N[C@@H](Cc1ccccc1)C(N)=O)[C@@H](C)O` [Compound A14], the solubility in data set [1] was 79 mg/mL. Moreover, the “Stability (37° C./RT, T0: Mar. 25, 2020)” value in data set [2] is recorded as 94.2. The EC50 in data set [3] is 0.0794 nM; in data set [4], 5.01 nM. The half-life at 1 mcM was more than 12 h in data set [5] (pH 7.4, human kBBM 50 mcg protein/mL, read-out: hkBBM t½ (converted)) and more than 12 h in data set [5] (pH 7.4, rat kBBM 50 mcg protein/mL, read-out: rkBBM t½).
